According to patent US10112899B2 (ViiV HEALTHCARE UK LIMITED, priority 2014, dated 2018):

Tested on: HIV in the HTLV-1 transformed cell line MT-4
Test: organism not typed
Type: cell-based
Conditions: MT4, 96 h, MT-4 cells; luciferase/cell titer glo readout after 96 hours; 10 point dose response

Compound | IC50 [µM]
Cc1ccc(-c2c(C)c3c(c(C)c2[C@H](OC(C)(C)C)C(=O)O)CN(C(=O)c2cc(F)ccc2C)C3)cc1 [Example 121, (S)-2-(tert-butoxy)-2-(2-(5-fluoro-2-methylbenzoyl)-4,7-dimethyl-6-(p-tolyl)isoindolin-5-yl)acetic acid] | 0.004
COc1cc(F)cc(C(=O)N2Cc3c(C)c(-c4ccc(C)cc4)c([C@H](OC(C)(C)C)C(=O)O)c(C)c3C2)c1 [Example 122, (S)-2-(tert-butoxy)-2-(2-(3-fluoro-5-methoxybenzoyl)-4,7-dimethyl-6-(p-tolyl)isoindolin-5-yl)acetic acid] | 0.003
Cc1ccc(-c2c(C)c3c(c(C)c2[C@H](OC(C)(C)C)C(=O)O)CN(C(=O)c2cc(C)cc(F)c2)C3)cc1 [Example 123, (S)-2-(tert-butoxy)-2-(2-(3-fluoro-5-methylbenzoyl)-4,7-dimethyl-6-(p-tolyl)isoindolin-5-yl)acetic acid] | 0.004
Cc1ccc(-c2c(C)c3c(c(C)c2[C@H](OC(C)(C)C)C(=O)O)CNC3)cc1 [Example 124, (S)-2-(tert-butoxy)-2-(4,7-dimethyl-6-(p-tolyl)isoindolin-5-yl)acetic acid] | 1.09
Cc1ccc(-c2c(C)c3c(c(C)c2[C@H](OC(C)(C)C)C(=O)O)CN(Cc2cccc4c2OCCO4)C3)cc1 [Example 125, (S)-2-(tert-butoxy)-2-(2-((2,3-dihydrobenzo[b][1,4]dioxin-5-yl)methyl)-4,7-dimethyl-6-(p-tolyl)isoindolin-5-yl)acetic acid] | 0.015
Cc1ccc(-c2c(C)c3c(c(C)c2[C@H](OC(C)(C)C)C(=O)O)CN(C(=O)OC(C)(C)C)C3)cc1 [Example 126, (S)-2-(tert-butoxy)-2-(2-(tert-butoxycarbonyl)-4,7-dimethyl-6-(p-tolyl)isoindolin-5-yl)acetic acid] | 0.013
Cc1ccc(-c2c(C)c3c(c(C)c2[C@H](OC(C)(C)C)C(=O)O)CN(CC(=O)N2CCCCC2)C3)cc1 [Example 127, (S)-2-(tert-butoxy)-2-(4,7-dimethyl-2-(2-oxo-2-(piperidin-1-yl)ethyl)-6-(p-tolyl)isoindolin-5-yl)acetic acid] | 0.318
Cc1ccc(-c2c(C)c3c(c(C)c2[C@H](OC(C)(C)C)C(=O)O)CN(C(=N)N2CCCCC2)C3)cc1 [Example 128, (S)-2-(tert-butoxy)-2-(2-(imino(piperidin-1-yl)methyl)-4,7-dimethyl-6-(p-tolyl)isoindolin-5-yl)acetic acid] | 8.54
Cc1ccc(-c2c(C)c3c(c(C)c2[C@H](OC(C)(C)C)C(=O)O)CN(C(=O)C(=O)N2CCCCC2)C3)cc1 [Example 129] | 0.014
Cc1ccc(-c2c(C)c3c(c(C)c2[C@H](OC(C)(C)C)C(=O)O)CN(C(=O)C(=O)N2CCOC[C@H]2C)C3)cc1 [Example 130, (S)-2-(tert-butoxy)-2-(4,7-dimethyl-2-(2-((R)-3-methylmorpholino)-2-oxoacetyl)-6-(p-tolyl)isoindolin-5-yl)acetic acid] | 0.041
Cc1ccc(-c2c(C)c3c(c(C)c2[C@H](OC(C)(C)C)C(=O)O)CN(C(=S)N2CCCCC2)C3)cc1 [Example 131, (S)-2-(tert-butoxy)-2-(4,7-dimethyl-2-(piperidine-1-carbonothioyl)-6-(p-tolyl)isoindolin-5-yl)acetic acid] | 0.019
Cc1c2c(c(C)c([C@H](OC(C)(C)C)C(=O)O)c1-c1ccc(Cl)cc1)CN(C(=O)N1CCCCC1)C2 [Example 132, (S)-2-(tert-butoxy)-2-(6-(4-chlorophenyl)-4,7-dimethyl-2-(piperidine-1-carbonyl)isoindolin-5-yl)acetic acid] | 0.021
Cc1c2c(c(C)c([C@H](OC(C)(C)C)C(=O)O)c1-c1ccc(Cl)cc1)CN(C(=O)C1CCCCC1)C2 [Example 134, (S)-2-(tert-butoxy)-2-(6-(4-chlorophenyl)-2-(cyclohexanecarbonyl)-4,7-dimethylisoindolin-5-yl)acetic acid] | 0.006
Cc1c2c(c(C)c([C@H](OC(C)(C)C)C(=O)O)c1-c1ccc(Cl)cc1)CN(C(=O)CC(C)(C)C)C2 [Example 135, (S)-2-(tert-butoxy)-2-(6-(4-chlorophenyl)-2-(3,3-dimethylbutanol)-4,7-dimethylisoindolin-5-yl)acetic acid] | 0.023
Cc1ccc(F)cc1C(=O)N1Cc2c(C)c(-c3cc(F)c4c(c3C)CCCO4)c([C@H](OC(C)(C)C)C(=O)O)c(C)c2C1 [Example 136, (S)-2-(tert-butoxy)-2-((R)-2-(5-fluoro-2-methylbenzoyl)-6-(8-fluoro-5-methylchroman-6-yl)-4,7-dimethylisoindolin-5-yl)acetic acid] | 0.002
COc1ccccc1C(=O)N1Cc2c(C)c(-c3ccc(C)cc3)c([C@H](OC(C)(C)C)C(=O)O)c(C)c2C1 [Example 163, (S)-2-(tert-butoxy)-2-(2-(2-methoxybenzoyl)-4,7-dimethyl-6-(p-tolyl)isoindolin-5-yl)acetic acid] | 0.004
Cc1ccc(-c2c(C)c3c(c(C)c2[C@H](OC(C)(C)C)C(=O)O)CN(C(=O)c2cccc4c2OCC4)C3)cc1 [Example 164, (S)-2-(tert-butoxy)-2-(2-(2,3-dihydrobenzofuran-7-carbonyl)-4,7-dimethyl-6-(p-tolyl)isoindolin-5-yl)acetic acid] | 0.004

Compound | IC50 [µM]
Cc1ccc(-c2c(C)c3c(c(C)c2[C@H](OC(C)(C)C)C(=O)O)CN(C(=O)c2cccc4c2ccn4C)C3)cc1 [Example 165, (S)-2-(tert-butoxy)-2-(4,7-dimethyl-2-(1-methyl-1H-indole-4-carbonyl)-6-(p-tolyl)isoindolin-5-yl)acetic acid] | 0.108
Cc1ccc(-c2c(C)c3c(c(C)c2[C@H](OC(C)(C)C)C(=O)O)CN(C(=O)c2cccc4sccc24)C3)cc1 [Example 166, (S)-2-(2-(benzo[b]thiophene-4-carbonyl)-4,7-dimethyl-6-(p-tolyl)isoindolin-5-yl)-2-(tert-butoxy)acetic acid] | 0.027
Cc1ccc(-c2c(C)c3c(c(C)c2[C@H](OC(C)(C)C)C(=O)O)CN(C(=O)c2cccc4ccoc24)C3)cc1 [Example 167, (S)-2-(2-(benzofuran-7-carbonyl)-4,7-dimethyl-6-(p-tolyl)isoindolin-5-yl)-2-(tert-butoxy)acetic acid] | 0.004
Cc1ccc(-c2c(C)c3c(c(C)c2[C@H](OC(C)(C)C)C(=O)O)CN(C(=O)c2ccccc2C)C3)cc1 [Example 219, (S)-2-(tert-butoxy)-2-(4,7-dimethyl-2-(2-methylbenzoyl)-6-(p-tolyl)isoindolin-5-yl)acetic acid] | 0.004
Cc1ccc(-c2c(C)c3c(c(C)c2[C@H](OC(C)(C)C)C(=O)O)CN(C(=O)c2cccc(Cl)c2)C3)cc1 [Example 220, (S)-2-(tert-butoxy)-2-(2-(3-chlorobenzoyl)-4,7-dimethyl-6-(p-tolyl)isoindolin-5-yl)acetic acid] | 0.004
Cc1ccc(-c2c(C)c3c(c(C)c2[C@H](OC(C)(C)C)C(=O)O)CN(C(=O)c2cccc(F)c2C)C3)cc1 [Example 221, (S)-2-(tert-butoxy)-2-(2-(3-fluoro-2-methylbenzoyl)-4,7-dimethyl-6-(p-tolyl)isoindolin-5-yl)acetic acid] | 0.004
COc1cc(C(=O)N2Cc3c(C)c(-c4ccc(C)cc4)c([C@H](OC(C)(C)C)C(=O)O)c(C)c3C2)ccc1C [Example 222, (S)-2-(tert-butoxy)-2-(2-(3-methoxy-4-methylbenzoyl)-4,7-dimethyl-6-(p-tolyl)isoindolin-5-yl)acetic acid] | 0.004
Cc1ccc(-c2c(C)c3c(c(C)c2[C@H](OC(C)(C)C)C(=O)O)CN(C(=O)c2ccnn2C)C3)cc1 [Example 223, (S)-2-(tert-butoxy)-2-(4,7-dimethyl-2-(1-methyl-1H-pyrazole-5-carbonyl)-6-(p-tolyl)isoindolin-5-yl)acetic acid] | 0.013
Cc1ccc(-c2c(C)c3c(c(C)c2[C@H](OC(C)(C)C)C(=O)O)CN(C(=O)c2ccc(C(C)(C)C)cc2)C3)cc1 [Example 224, (S)-2-(tert-butoxy)-2-(2-(4-(tert-butyl)benzoyl)-4,7-dimethyl-6-(p-tolyl)isoindolin-5-yl)acetic acid] | 0.044
Cc1ccc(-c2c(C)c3c(c(C)c2[C@H](OC(C)(C)C)C(=O)O)CN(C(=O)c2cccc(C)c2)C3)cc1 [Example 225, (S)-2-(tert-butoxy)-2-(4,7-dimethyl-2-(3-methylbenzoyl)-6-(p-tolyl)isoindolin-5-yl)acetic acid] | 0.005
Cc1ccc(-c2c(C)c3c(c(C)c2[C@H](OC(C)(C)C)C(=O)O)CN(C(=O)c2cc(F)cc(Cl)c2)C3)cc1 [Example 226, (S)-2-(tert-butoxy)-2-(2-(3-chloro-5-fluorobenzoyl)-4,7-dimethyl-6-(p-tolyl)isoindolin-5-yl)acetic acid] | 0.005
Cc1ccc(-c2c(C)c3c(c(C)c2[C@H](OC(C)(C)C)C(=O)O)CN(C(=O)c2ccc(C(F)(F)F)cc2)C3)cc1 [Example 227, (S)-2-(tert-butoxy)-2-(4,7-dimethyl-6-(p-tolyl)-2-(4-(trifluoromethyl)benzoyl)isoindolin-5-yl)acetic acid] | 0.014
Cc1ccc(-c2c(C)c3c(c(C)c2[C@H](OC(C)(C)C)C(=O)O)CN(C(=O)C2CCC2)C3)cc1 [Example 228, (S)-2-(tert-butoxy)-2-(2-(cyclobutanecarbonyl)-4,7-dimethyl-6-(p-tolyl)isoindolin-5-yl)acetic acid] | 0.013
Cc1ccc(-c2c(C)c3c(c(C)c2[C@H](OC(C)(C)C)C(=O)O)CN(C(=O)c2ccccc2)C3)cc1 [Example 229, (S)-2-(2-benzoyl-4,7-dimethyl-6-(p-tolyl)isoindolin-5-yl)-2-(tert-butoxy)acetic acid] | 0.005
Cc1ccc(-c2c(C)c3c(c(C)c2[C@H](OC(C)(C)C)C(=O)O)CN(C(=O)c2cccc(C(C)(C)C)c2)C3)cc1 [Example 230, (S)-2-(tert-butoxy)-2-(2-(3-(tert-butyl)benzoyl)-4,7-dimethyl-6-(p-tolyl)isoindolin-5-yl)acetic acid] | 0.111
Cc1ccc(-c2c(C)c3c(c(C)c2[C@H](OC(C)(C)C)C(=O)O)CN(C(=O)[C@H]2CCOC2)C3)cc1 [Example 231, (S)-2-(tert-butoxy)-2-(4,7-dimethyl-2-((S)-tetrahydrofuran-3-carbonyl)-6-(p-tolyl)isoindolin-5-yl)acetic acid] | 0.037
